Measurements as given in patent publication US11453697B1, “Cyclic di-nucleotide compounds as sting agonists” (Merck Sharp & Dohme Corp., priority 2015, dated 2022).
Where two headings read alike, the source gives them in different places.

System: IFN-β secretion in THP1 cells
Experiment: IFN-β secretion in THP1 cell culture (5 h)
Format: cell-based, human
Experimental: The ability of compounds to stimulate the secretion of interferon-beta from THP1 cells was measured using a human IFN-β AlphaLISA kit (Perkin Elmer, Cat. No. AL265F). The basic protocol is as follows:
The cell viability and count was ascertained using a Beckman Coulter V-Cell XR cell counter. The cells suspension was centrifuged at 200×g for 5 min at RT. […] Subsequent liquid transfers were performed using either a Matrix electronic multichannel pipette or an Agilent Bravo Automated Liquid Handling Platform.
The assay was started by dispensing 40 μL of the previously prepared cell suspension into the wells of the plate containing compounds. After 5 h incubation at 37° C., 5% CO2 in a humidified atmosphere, the plate of cells and compounds was centrifuged at 200×g for 5 min at RT. […] To these supernatant-containing wells was added 10 μL of 5× Anti-Analyte Acceptor beads (50 μg/mL of AlphaLISA HiBlock Buffer) and incubated for 30 min at RT while shaking on an orbital plate shaker. To each well was added 10 μL of 5× Biotinylated Antibody Anti-analyte (5 nM in AlphaLISA HiBlock Buffer) and incubated on an orbital plate shaker for 60 min at RT or overnight at 4° C. To each well was added 25 μL of 2× SA-Donor beads (80 μg/mL in AlphaLISA HiBlock Buffer) and incubated for 30-45 min at RT in the dark while shaking on an orbital plate shaker. The plate was then read on a Perkin Elmer Envision (λex=680 nm, λem=[…]). The percent effect of the AlphaLISA signal at each compound concentration was calculated based on 30 uM cGAMP positive controls and 0.3% DMSO negative controls. The plot of percent effect versus the log of compound concentration was fit with a 4-parameter concentration response equation to calculate EC50 values.
Compounds of the disclosure were evaluated for IFN-β secretion in THP1 cell culture as described above.

[1] = IFN-β secretion in THP1 cell culture, 5 h, compound at 30 μM, percent activation relative to 2′3′-cGAMP

SMILES | % Effect at 30 μM relative to 2′3′-cGAMP [1] | % Effect at 30 μM relative to 2′3′-cGAMP
Nc1nc2c(ncn2[C@@H]2O[C@@H]3COP(=O)(S)O[C@H]4[C@H](F)[C@H](n5cnc6c(N)ncnc65)O[C@@H]4COP(=O)(O)O[C@@H]2[C@@H]3F)c(=O)[nH]1 (stereo partly drawn) [Example 143, 2-amino-9-[(5R,7R,8S,12aR,14R,15S,15aR,16R)-14-(6-amino-9H-purin-9-yl)-15,16-difluoro-2,10-dihydroxy-10-oxido-2-sulfidooctahydro-12H-5,8-methanofuro[3,2-l][1,3,6,9,11,2,10]pentaoxadiphosphacyclotetra-decin-7-yl]-1,9-dihydro-6H-purin-6-one] | 157% | –
Nc1nc2c(ncn2[C@@H]2O[C@@H]3COP(O)(=S)O[C@H]4[C@H](F)[C@H](n5cnc6c(N)ncnc65)O[C@@H]4COP(O)(=S)O[C@@H]2[C@@H]3F)c(=O)[nH]1 (single isomer, unassigned) [Example 245] | 234% | –
Nc1nc2c(ncn2[C@@H]2O[C@@H]3COP(=O)(S)OC4[C@@H](COP(=O)(S)OC2C3O)O[C@@H](n2cnc3c(N)ncnc32)[C@H]4F)c(=O)[nH]1 (single isomer, unassigned) [Example 92] | 62% | –
Nc1nc2c(ncn2[C@@H]2O[C@@H]3COP(=O)(S)OC4C5OC[C@]4(COP(=O)(S)OC2C3O)O[C@H]5n2cnc3c(N)ncnc32)c(=O)[nH]1 (single isomer, unassigned) [Example 94] | 138% | –
Nc1nc2c(nnn2[C@@H]2O[C@@H]3COP(=O)(S)O[C@H]4[C@H](F)[C@H](n5cnc6c(=O)[nH]cnc65)O[C@@H]4COP(=O)(S)O[C@@H]2[C@@H]3F)c(=O)[nH]1 (single isomer, unassigned) [Example 343] | 255% | –
Nc1nc2c(nnn2[C@@H]2O[C@@H]3COP(=O)(S)O[C@H]4[C@H](F)[C@H](n5nnc6c(=O)[nH]cnc65)O[C@@H]4COP(=O)(S)O[C@@H]2C3)c(=O)[nH]1 (single isomer, unassigned) [Example 340] | 306% | –
Nc1nc2c(nnn2[C@@H]2O[C@@H]3COP(=O)(S)O[C@H]4[C@H](F)[C@H](n5nnc6c(=O)[nH]cnc65)O[C@@H]4COP(=O)(S)O[C@@H]2C3)c(=O)[nH]1 (single isomer, unassigned) [Example 341] | 7% | –
Nc1nc2c(ncn2[C@@H]2O[C@@H]3CO[P@@](=O)(S)O[C@H]4[C@H](F)[C@H](n5cnc6c(N)ncnc65)O[C@@H]4CO[P@@](=O)(S)O[C@@H]2[C@H]3F)c(=O)[nH]1 (single isomer, unassigned) [Example 144] | 114% | –
Nc1nc2c(ncn2[C@@H]2O[C@@H]3COP(=O)(S)OC4C(O)[C@H](n5cnc6c(N)ncnc65)O[C@@H]4COP(=O)(S)OC2C3)c(=O)[nH]1 (single isomer, unassigned) [Example 88] | 54% | –
Nc1nc2c(ncn2[C@@H]2O[C@@H]3COP(=O)(S)O[C@H]4[C@@H](O)[C@H](n5ccc6c(N)ncnc65)O[C@@H]4COP(=O)(S)O[C@@H]2C3)c(=O)[nH]1 (stereo partly drawn) [Example 80, 2-amino-9-[(5S,7R,8R,12aR,14R,15R,15aS)-14-(4-amino-7H-pyrrolo[2,3-d]pyrimidin-7-yl)-15-hydroxy-2,10-dioxido-2,10-disulfanyloctahydro-12H-5,8-methanofuro[3,2-l][1,3,6,9,11,2,10]pentaoxadiphosphacyclotetradecin-7-yl]-1,9-dihydro-6H-purin-6-one] | 234% | –
Nc1nc2c(ncn2[C@@H]2O[C@@H]3COP(=O)(O)OC4[C@@H](COP(=O)(O)OC2C3O)O[C@@H](n2cnc3c(N)ncnc32)[C@H]4F)c(=O)[nH]1 (stereo in doubt) [Example 7, (5R,7R,8R,12aR,14R,15S,15aR,16R)-7-(2-amino-6-oxo-1,6-dihydro-9H-purin-9-yl)-14-(6-amino-9H-purin-9-yl)-15-fluoro-16-hydroxyoctahydro-12H-5,8-methanofuro[3,2-l][1,3,6,9,11,2,10] pentaoxadiphosphacyclotetradecine-2,10-diolate 2,10-dioxide] | – | 112%
Nc1nc2c(ncn2[C@@H]2O[C@@H]3COP(=O)(O)O[C@H]4[C@H](F)[C@H](n5cnc6c(N)ncnc65)O[C@@H]4COP(O)(=S)O[C@@H]2[C@@H]3F)c(=O)[nH]1 (single isomer, unassigned) [Example 274] | 124% | –
Nc1nc2c(ncn2[C@@H]2O[C@@H]3COP(=O)(O)OC4C(F)[C@H](n5cnc6c(N)ncnc65)O[C@@H]4COP(=O)(O)OC2C3O)c(=O)[nH]1 (stereo in doubt) [Example 2, (5R,7R,8R,12aR,14R,15R,15aR,16R)-7-(2-amino-6-oxo-1,6-dihydro-9H-purin-9-yl)-14-(6-amino-9H-purin-9-yl)-15-fluoro-16-hydroxyoctahydro-12H-5,8-methanofuro[3,2-l] [1,3,6,9,11,2,10]pentaoxadiphosphacyclotetradecine-2,10-diolate 2,10-dioxide] | – | 148%
Nc1nc2c(ncn2[C@@H]2O[C@@H]3COP(=O)(O)O[C@H]4[C@H](O)[C@H](n5cnc6c(N)ncnc65)O[C@@H]4COP(=O)(O)O[C@@H]2[C@@H]3O)c(=O)[nH]1 [Example 48, 2-amino-9-[(5R,7R,8R,12aR,14R,15S,15aS,16R)-14-(6-amino-9H-purin-9-yl)-2,10,15,16-tetrahydroxy-2,10-dioxidooctahydro-12H-5,8-methanofuro[3,2-l][1,3,6,9,11,2,10]pentaoxadiphosphacyclotetradecin-7-yl]-1,9-dihydro-6H-purin-6-one] | – | 104%
Nc1nc2c(ncn2[C@@H]2O[C@@H]3COP(=O)(O)O[C@H]4[C@H](F)[C@H](n5nnc6c(=O)[nH]cnc65)O[C@@H]4COP(=O)(S)O[C@@H]2[C@@H]3F)c(=O)[nH]1 (single isomer, unassigned) [Example 346] | 182% | –
Nc1nc2c(ncn2[C@@H]2O[C@@H]3COP(=O)(S)O[C@H]4[C@H](F)[C@H](n5cnc6c(N)ncnc65)O[C@@H]4COP(=O)(S)O[C@@H]2[C@H]3F)c(=O)[nH]1 (single isomer, unassigned) [Example 145] | – | 141%
Nc1nc2c(nnn2[C@@H]2O[C@@H]3COP(=O)(S)O[C@H]4[C@H](F)[C@H](n5cnc6c(=O)[nH]cnc65)O[C@@H]4COP(=O)(S)O[C@@H]2[C@H]3F)c(=O)[nH]1 (stereo partly drawn) [Example 348, 5-amino-3-[(5R,7R,8S,12aR,14R,15S,15aR,16S)-15,16-difluoro-2,10-dioxido-14-(6-oxo-1,6-dihydro-9H-purin-9-yl)-2,10-disulfanyloctahydro-12H-5,8-methanofuro[3,2-l][1,3,6,9,11,2,10]pentaoxadiphosphacyclotetradecin-7-yl]-3,6-dihydro-7H-[1,2,3]triazolo[4,5-d]pyrimidin-7-one] | 8% | –
Nc1nc2c(ncn2[C@@H]2O[C@@H]3COP(=O)(S)OC4[C@@H](COP(=O)(S)O[C@H]2C3)O[C@@H](n2nnc3c(N)ncnc32)[C@H]4F)c(=O)[nH]1 (stereo partly drawn) [Example 133, 2-amino-9-[(5S,7R,8R,12aR,14R,15S,15aR)-14-(7-amino-3H-[1,2,3]triazolo[4,5-d]pyrimidin-3-yl)-15-fluoro-2,10-dihydroxy-2,10-disulfidooctahydro-12H-5,8-methanofuro[3,2-l][1,3,6,9,11,2,10]pentaoxadiphosphacyclotetra-decin-7-yl]-1,9-dihydro-6H-purin-6-one] | 117% | –
Nc1nc2c(ncn2[C@@H]2O[C@@H]3COP(O)(=S)O[C@H]4[C@H](F)[C@H](n5cnc6c(N)ncnc65)O[C@@H]4COP(O)(=S)O[C@@H]2[C@@H]3F)c(=O)[nH]1 (single isomer, unassigned) [Example 244] | 96% | –
Nc1nc2c(ncn2[C@@H]2O[C@@H]3COP(=O)(S)OC4[C@@H](COP(=O)(S)OC2C3O)O[C@@H](n2cnc3c(N)ncnc32)[C@H]4F)c(=O)[nH]1 (single isomer, unassigned) [Example 90] | 117% | –
Nc1nc2c(ncn2[C@@H]2O[C@@H]3COP(=O)(O)O[C@H]4[C@H](F)[C@H](n5nnc6c(=O)[nH]cnc65)O[C@@H]4COP(=O)(S)O[C@@H]2[C@@H]3F)c(=O)[nH]1 (single isomer, unassigned) [Example 347] | 225% | –
Nc1nc2c(nnn2[C@@H]2O[C@@H]3COP(=O)(S)O[C@H]4[C@H](F)[C@H](n5nnc6c(=O)[nH]cnc65)O[C@@H]4COP(=O)(S)O[C@@H]2[C@@H]3F)c(=O)[nH]1 (single isomer, unassigned) [Example 345] | 144% | –
Nc1nc2c(ncn2[C@@H]2O[C@@H]3COP(=O)(S)O[C@H]4[C@H](F)[C@H](n5cnc6c(N)ncnc65)O[C@@H]4COP(=O)(S)O[C@@H]2[C@H]3F)c(=O)[nH]1 (single isomer, unassigned) [Example 146] | 59% | –
